Assay results taken from patent US5834301A, “Method of removing color from kraft wood pulps” (priority 1995, dated 1998).

Key:
Type in all cases: biochemical
Conditions in all cases: 1 mM reagent
[1] = test system: Streptomyces sp. TUB B-12-2 endoxylanase xyl 4
Experimental: (§1) Xylanase activity was routinely determined by measuring the release of reducing sugars from either 1% (w/v) alkali-soluble or water soluble oat-spelt xylan, using the Somogyi's modification Nelson method (NS) as previously described. Crude or purified enzyme preparations were diluted appropriately to obtain maximal activity consistent with a linear response. For comparative purposes, xylanase activities were measured against 1% (w/v) water soluble and water insoluble xylan from either oat-spelts or birch (Sigma). The dinitrosalicylic acid (DNS) method of Miller, Anal. Chem., 31:426-429 (1959) was used to assay xylanase activity during initial screening. Carboxymethylcellulase activity (CMCase) was assayed by replacing 1% xylan with 1% of low viscosity carboxymethyl cellulose (Sigma). Acetylated glucuronoxylan was recovered from birch wood flakes by hot water extraction. β-Xylosidase was assayed as described by Bachmann and McCarthy, J. Gen. Microbiol., 135:293-299 (1989) using 5 mM p-nitrophenyl-β-D-xylopyranoside in 50 mM potassium phosphate buffer at pH 7.0. The values of the Michaelis constant (Km) and the maximum velocity (Vmax) were determined from a Lineweaver-Burke plot of assayed activities over a range of substrate concentrations. Suitably diluted xylanases were incubated with alkali-soluble birch wood or oat spelt xylan at concentrations ranging from 0.5 to 10 mg/ml under the assay conditions given.
(§2) f. Effectors. We investigated the effects of 1 mM metal ions and other agents on the activities of purified endoxylanases (Table 14).

[2] = test system: Streptomyces sp. TUB B-12-2 endoxylanase xyl 1a
Experimental: as §1, §2

[3] = test system: Streptomyces sp. TUB B-12-2 endoxylanase xyl 1b
Experimental: as §1, §2

[4] = test system: Streptomyces sp. TUB B-12-2 endoxylanase xyl 3
Experimental: as §1, §2

[5] = test system: Streptomyces sp. TUB B-12-2 endoxylanase xyl 2
Experimental: as §1, §2

| Molecule | Relative activity (%) xyl 4 [1] | Relative activity (%) xyl 1a [2] | Effect on activity of xyl 1b (in words) [3] | Relative activity (%) xyl 1b [3] | Relative activity (%) xyl 3 [4] | Relative activity (%) xyl 2 [5] | Effect on activity of xyl 4 (in words) [1] | Effect on activity of xyl 1a (in words) [2] | Effect on activity of xyl 3 (in words) [4] | Effect on activity of xyl 2 (in words) [5] |
| --- | --- | --- | --- | --- | --- | --- | --- | --- | --- | --- |
| O=C(O)c1cc[c]([Hg][OH])cc1 [PHMB, p-Hydroxymercury-benzoate] | 95% | 100% | completely inactivated | 0% | 96% | 90% | – | – | – | – |
| O=S(=O)(F)Cc1ccccc1 [PMSF, Phenylmethylsulfonylfluoride] | 100% | 95% | did not influence the activity | 87% | 100% | 100% | did not influence the activity | did not influence the activity | did not influence the activity | did not influence the activity |
| N-Bromosuccinamide | 0% | 0% | totally inactivated | 0% | 0% | 0% | totally inactivated | totally inactivated | totally inactivated | totally inactivated |
